{"source": "patent US20240262806A1", "about": "“INHIBITORS OF NLRP3” (PTC THERAPEUTICS, INC., priority 2021, published 2024)"}
{"system": "NLRP3 inflammasome", "test": "IL-1β Secretion Assay (NLRP3-dependent IL-1β secretion in PMA-differentiated THP-1 cells, nigericin activation, HTRF)", "type": "cell-based", "settings": "Homo sapiens, THP-1, THP-1 cells, 100 ng/mL PMA 24 h, compound 20 h, 2.5 μM Nigericin 3 h; read-out: IC50 IL-1β Inhibition", "summary_of_the_method": "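PMA-differentiated THP-1 cells in RPMI with 5% FBS were treated with compounds at 7 concentrations in threefold DMSO dilutions. NLRP3 was activated with nigericin and secreted IL-1β measured by HTRF. IC50 from a logistic fit of percent inhibition versus concentration.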", "units": {"IC50": "nM"}}
{"molecule": "Cc1cc2c(-c3c(C)cc(C(F)(F)F)cc3O)nnc(N[C@@H]3CCCN(C)C3)n2n1", "note": "[Compound I-560]", "IC50": "1 to 10"}
{"molecule": "Oc1cc(Cl)ccc1-c1nnc(N[C@@H]2CCOC2)n2cncc12", "note": "[Compound I-561]", "IC50": "1 to 10"}
{"molecule": "COc1cc(O)c(-c2nnc(N[C@H]3C[C@@](C)(O)C3)n3cccc23)c(F)c1", "note": "[Compound I-562]", "IC50": "1 to 10"}
{"molecule": "CCc1cc(O)c(-c2nnc(N[C@@H]3CCCN(C)C3)n3cccc23)c(F)c1", "note": "[Compound I-563]", "IC50": "< 1"}
{"molecule": "CCN1CCC[C@@H](Nc2nnc(-c3ccc(Br)cc3O)c3cccn23)C1", "note": "[Compound I-564]", "IC50": "< 1"}
{"molecule": "CCN1CCC[C@@H](Nc2nnc(-c3ccc(OC(F)(F)F)cc3OC(F)F)c3cccn23)C1", "note": "[Compound I-565]", "IC50": "1 to 10"}
{"molecule": "CCN1CCC[C@@H](Nc2nnc(-c3ccc(C(F)(F)F)cc3OC(F)F)c3c(F)ccn23)C1", "note": "[Compound I-566]", "IC50": "1 to 10"}
{"molecule": "CN1CCCC(Cc2nnc(-c3ccc(C(F)(F)F)cc3O)c3ccncc23)C1", "note": "(stereo not drawn) [Compound I-567]", "IC50": "10 to 100"}
{"molecule": "COC(C)(C)CNc1nnc(-c2ccc(C(F)(F)F)cc2OC(F)F)c2cccn12", "note": "[Compound I-568]", "IC50": "1 to 10"}
{"molecule": "Cc1cc(O)c(-c2nnc(N[C@@H]3CCCN(C(C)C)C3)n3cccc23)c(F)c1", "note": "[Compound I-569]", "IC50": "< 1"}
{"molecule": "Cc1cc(O)c(-c2nnc(N[C@@H]3CCCN(CC(F)(F)F)C3)n3cccc23)c(F)c1", "note": "[Compound I-570]", "IC50": "1 to 10"}
{"molecule": "CCN1C[C@H](F)C[C@@H](Nc2nnc(-c3c(O)cc(C)cc3F)c3cccn23)C1", "note": "[Compound I-571]", "IC50": "< 1"}
{"molecule": "C[C@]1(O)C[C@@H](Nc2nnc(-c3ccc(OC(F)F)cc3OC(F)F)c3cccn23)C1", "note": "[Compound I-573]", "IC50": "10 to 100"}
{"molecule": "CCN1CCC[C@@H](Nc2nnc(-c3ccc(C(F)(F)F)cc3OC(F)F)c3cncn23)C1", "note": "[Compound I-574, (R)-1-(2-(Difluoromethoxy)-4-(trifluoromethyl)phenyl)-N-(1-ethylpiperidin-3-yl)imidazo[1,5-d][1,2,4]triazin-4-amine]", "IC50": "< 1"}
{"molecule": "Oc1cc(C(F)(F)F)ccc1-c1nnc(N[C@H]2CNC[C@@H](F)C2)n2cccc12", "note": "[Compound I-575]", "IC50": "100 to 300"}
{"molecule": "CCN1C[C@H](F)C[C@@H](Nc2nnc(-c3c(O)cc(C4CC4)cc3F)c3cccn23)C1", "note": "[Compound I-576]", "IC50": "< 1"}
{"molecule": "C[C@H](O)CNc1nnc(-c2c(O)cc(Cl)cc2F)c2cccn12", "note": "[Compound I-577]", "IC50": "10 to 100"}
{"molecule": "Oc1cc(Cl)ccc1-c1nnc(N[C@@H]2CCC[C@H](O)C2)n2cncc12", "note": "[Compound I-578]", "IC50": "< 1"}
{"molecule": "CCN1CCC[C@@H](Nc2nnc(-c3c(O)cc(Cl)cc3F)c3cc(C)nn23)C1", "note": "[Compound I-579]", "IC50": "< 1"}
{"molecule": "Oc1cc(Cl)ccc1-c1nnc(N[C@H]2CCOC2)n2cncc12", "note": "[Compound I-580]", "IC50": "1 to 10"}
{"molecule": "CO[C@H]1CCC[C@@H](Nc2nnc(-c3ccc(Cl)cc3O)c3cncn23)C1", "note": "[Compound I-581]", "IC50": "1 to 10"}
{"molecule": "CCN1CCC[C@H]1CNc1nnc(-c2c(O)cc(C)cc2F)c2cccn12", "note": "[Compound I-582]", "IC50": "1 to 10"}
{"molecule": "CCN1CCC[C@H]1CNc1nnc(-c2c(O)cc(C3CC3)cc2F)c2cccn12", "note": "[Compound I-583]", "IC50": "1 to 10"}
{"molecule": "CCN1CCC[C@@H](Nc2nnc(-c3ccc(OC(F)(F)F)cc3O)c3cc(C)nn23)C1", "note": "[Compound I-584]", "IC50": "< 1"}
{"molecule": "C[C@@H](O)CNc1nnc(-c2ccc(C3CC3)cc2O)c2cccn12", "note": "[Compound I-586]", "IC50": "100 to 300"}
{"molecule": "COc1ccc(-c2nnc(NC[C@@H](C)O)n3cccc23)c(O)c1", "note": "[Compound I-587]", "IC50": "10 to 100"}
{"molecule": "C[C@@H](O)CNc1nnc(-c2ccc(C(F)(F)F)cc2O)c2cccn12", "note": "[Compound I-588]", "IC50": "10 to 100"}
{"molecule": "Cc1cc2c(-c3ccc(C(F)(F)F)cc3OC(F)F)nnc(N[C@@H]3CCCN(C)C3)n2c1", "note": "[Compound I-591]", "IC50": "1 to 10"}
{"molecule": "CC(C)N1CCC[C@@H](Nc2nnc(-c3ccc(C(F)(F)F)cc3OC(F)F)c3c(F)ccn23)C1", "note": "[Compound I-592]", "IC50": "< 1"}
{"molecule": "C[C@]1(O)C[C@@H](Nc2nnc(-c3ccc(C(F)(F)F)cc3O)c3c(F)ccn23)C1", "note": "[Compound I-593]", "IC50": "1 to 10"}
{"molecule": "C[C@H](O)CNc1nnc(-c2ccc(C(F)(F)F)cc2O)c2c(F)ccn12", "note": "[Compound I-595]", "IC50": "10 to 100"}
{"molecule": "CN1C[C@H](F)C[C@@H](Nc2nnc(-c3ccc(C(F)(F)F)cc3O)c3c(F)ccn23)C1", "note": "[Compound I-596]", "IC50": "1 to 10"}
{"molecule": "CN1C[C@H](O)C[C@@H](Nc2nnc(-c3ccc(C(F)(F)F)cc3O)c3c(F)ccn23)C1", "note": "[Compound I-597]", "IC50": "10 to 100"}
{"molecule": "CCN1C[C@H](F)C[C@@H](Nc2nnc(-c3ccc(OC(F)(F)F)cc3O)c3c(F)ccn23)C1", "note": "[Compound I-598]", "IC50": "1 to 10"}
{"molecule": "CN1CCC[C@@H](Nc2nnc(-c3ccc(C4CC4)cc3O)c3c(F)ccn23)C1", "note": "[Compound I-599]", "IC50": "1 to 10"}
{"molecule": "CCN1CCC[C@@H](Nc2nnc(-c3ccc(C4CC4)cc3O)c3c(F)ccn23)C1", "note": "[Compound I-600]", "IC50": "< 1"}
{"molecule": "CN1CCC[C@@H](Nc2nnc(-c3c(O)cc(C4CC4)cc3F)c3c(F)ccn23)C1", "note": "[Compound I-601]", "IC50": "< 1"}
{"molecule": "CCN1CCC[C@@H](Nc2nnc(-c3c(O)cc(C4CC4)cc3F)c3c(F)ccn23)C1", "note": "[Compound I-602]", "IC50": "< 1"}
{"molecule": "CCN1C[C@H](O)C[C@@H](Nc2nnc(-c3ccc(C(F)(F)F)cc3OC(F)F)c3c(F)ccn23)C1", "note": "[Compound I-603]", "IC50": "100 to 300"}
{"molecule": "CCN1CCC[C@@H](Nc2nnc(-c3ccc(OC(F)(F)F)cc3O)c3c(F)ccn23)C1", "note": "[Compound I-604]", "IC50": "1 to 10"}
{"molecule": "CCN1C[C@H](O)C[C@@H](Nc2nnc(-c3ccc(OC(F)(F)F)cc3O)c3c(F)ccn23)C1", "note": "[Compound I-605]", "IC50": "100 to 300"}
{"molecule": "CCN1CCC[C@@H](Nc2nnc(-c3c(C)cc(C(F)(F)F)cc3O)c3cccn23)C1", "note": "[Compound I-606]", "IC50": "< 1"}
{"molecule": "Cc1cc2c(-c3c(O)cc(C(F)(F)F)cc3F)nnc(N[C@@H]3CCCN(C)C3)n2c1", "note": "[Compound I-607]", "IC50": "< 1"}
{"molecule": "Oc1cc(Cl)cc(F)c1-c1nnc(NC2CCCOC2)n2cccc12", "note": "(stereo not drawn) [Compound I-608]", "IC50": "10 to 100"}
{"molecule": "CCN1CCC[C@@H](Nc2nnc(-c3ccc(OC(F)(F)F)cc3O)c3cccn23)C1", "note": "[Compound I-609]", "IC50": "1 to 10"}
{"molecule": "FC(F)Oc1cc(C(F)(F)F)ccc1-c1nnc(NC[C@@H]2CCCO2)n2cccc12", "note": "[Compound I-610]", "IC50": "10 to 100"}
{"molecule": "FC(F)Oc1cc(C(F)(F)F)ccc1-c1nnc(NC[C@H]2CCCO2)n2cccc12", "note": "[Compound I-611]", "IC50": "10 to 100"}
{"molecule": "CN1CCC[C@@H](Nc2nnc(-c3ccc(OC(F)F)cc3OC(F)F)c3cccn23)C1", "note": "[Compound I-612]", "IC50": "1 to 10"}
{"molecule": "CCN1CCC[C@@H](Nc2nnc(-c3ccc(OC(F)F)cc3OC(F)F)c3cccn23)C1", "note": "[Compound I-613]", "IC50": "1 to 10"}
{"molecule": "OCCN1CCC[C@@H](Nc2nnc(-c3ccc(OC(F)F)cc3OC(F)F)c3cccn23)C1", "note": "[Compound I-614]", "IC50": "1 to 10"}
{"molecule": "CN1C[C@H](F)C[C@@H](Nc2nnc(-c3ccc(OC(F)F)cc3OC(F)F)c3cccn23)C1", "note": "[Compound I-615]", "IC50": "10 to 100"}
{"molecule": "CCN1CCC[C@@H](Nc2nnc(-c3c(O)cc(OC(F)F)cc3F)c3cccn23)C1", "note": "[Compound I-616]", "IC50": "< 1"}
{"molecule": "CN1C[C@H](F)C[C@@H](Nc2nnc(-c3c(O)cc(OC(F)F)cc3F)c3cccn23)C1", "note": "[Compound I-617]", "IC50": "1 to 10"}
{"molecule": "C[C@]1(O)C[C@@H](Nc2nnc(-c3c(O)cc(OC(F)F)cc3F)c3cccn23)C1", "note": "[Compound I-618]", "IC50": "10 to 100"}
{"molecule": "CCN1C[C@H](F)C[C@@H](Nc2nnc(-c3c(O)cc(Cl)cc3F)c3cccn23)C1", "note": "[Compound I-620]", "IC50": "1 to 10"}
{"molecule": "Oc1cc(Cl)cc(F)c1-c1nnc(NCC2CCCO2)n2cccc12", "note": "(stereo not drawn) [Compound I-621]", "IC50": "10 to 100"}
{"molecule": "OCCN1CCC[C@@H](Nc2nnc(-c3ccc(Br)cc3O)c3cncn23)C1", "note": "[Compound I-623]", "IC50": "< 1"}
{"molecule": "CN1CCC[C@@H](Nc2nnc(-c3ccc(C(F)(F)F)cc3OC(F)F)c3cncn23)C1", "note": "[Compound I-624]", "IC50": "1 to 10"}
{"molecule": "CN1C[C@H](F)C[C@@H](Nc2nnc(-c3ccc(C(F)(F)F)cc3OC(F)F)c3cncn23)C1", "note": "[Compound I-625]", "IC50": "10 to 100"}
{"molecule": "CCN1CCC[C@@H](Nc2nnc(-c3c(O)cc(C)cc3F)c3cncn23)C1", "note": "[Compound I-626]", "IC50": "< 1"}
{"molecule": "C[C@]1(O)C[C@@H](Nc2nnc(-c3ccc(Br)cc3O)c3cncn23)C1", "note": "[Compound I-627]", "IC50": "1 to 10"}
{"molecule": "CCN1CCC[C@@H](Nc2nnc(-c3ccc(Br)cc3O)c3cncn23)C1", "note": "[Compound I-628]", "IC50": "< 1"}
{"molecule": "CCOc1cc(O)c(-c2nnc(N[C@H]3C[C@@](C)(O)C3)n3cccc23)c(F)c1", "note": "[Compound I-629]", "IC50": "10 to 100"}
{"molecule": "CCOc1cc(O)c(-c2nnc(N[C@@H]3CCCN(C)C3)n3cccc23)c(F)c1", "note": "[Compound I-630]", "IC50": "1 to 10"}
{"molecule": "CCOc1cc(O)c(-c2nnc(N[C@@H]3C[C@@H](F)CN(C)C3)n3cccc23)c(F)c1", "note": "[Compound I-631]", "IC50": "10 to 100"}
{"molecule": "CCN1CCC[C@@H](Nc2nnc(-c3ccc(OC)cc3O)c3ccnn23)C1", "note": "[Compound I-632]", "IC50": "1 to 10"}
{"molecule": "CCN1CCC[C@@H](Nc2nnc(-c3ccc(C)cc3O)c3ccnn23)C1", "note": "[Compound I-633]", "IC50": "1 to 10"}
{"molecule": "COc1ccc(-c2nnc(N[C@@H]3CCCN(C)C3)n3nccc23)c(O)c1", "note": "[Compound I-634, (R)-5-Methoxy-2-(7-((1-methylpiperidin-3-yl)amino)pyrazolo[1,5-d][1,2,4]triazin-4-yl)phenol]", "IC50": "10 to 100"}
{"molecule": "CCN1CCC[C@@H](Nc2nnc(-c3c(C)cc(C)cc3O)c3cccn23)C1", "note": "[Compound I-636]", "IC50": "< 1"}
